Here are results for 31 compounds from patent US12441691B2 (Cytokinetics, Inc., priority 2020, dated 2025).

In the experiment the test system is rabbit skeletal myofibrils (fast skeletal myofibrils). In words: Activation of fast skeletal myofibrils (PUMA assay, AC1.4). The format is biochemical. Particulars: calcium at pCa25, AC1.4 = concentration at which the compound increased the enzymatic activity. The method, boiled down:
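Detergent-washed rabbit psoas myofibrils (~90% fast fibers), calcium set to give 25% of maximal rate (pCa25). ATPase followed by pyruvate kinase/lactate dehydrogenase-coupled NADH oxidation, absorbance at 340 nm. PM12 buffer: 12 mM PIPES, 2 mM MgCl2, 1 mM DTT, pH 6.8.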
Consider `CC[C@H](C)[C@H]1C(=O)Nc2ccccc2CN1C(=O)c1ccc2[nH]c(C(N)=O)cc2n1` [Compound 169, 5-((S)-3-((S)-sec-butyl)-2-oxo-2,3,4,5-tetrahydro-1H-benzo[e][1,4]diazepine-4-carbonyl)-1H-pyrrolo[3,2-b]pyridine-2-carboxamide], for which the AC1.4 came to 0.06 µM.
In the case of `CC[C@H](C)[C@H]1C(=O)Nc2ccccc2CN1C(=O)c1ccc(=O)n(CCO)c1` [Compound 170, (S)-3-((S)-sec-butyl)-4-(1-(2-hydroxyethyl)-6-oxo-1,6-dihydropyridine-3-carbonyl)-1,3,4,5-tetrahydro-2H-benzo[e][1,4]diazepin-2-one], the AC1.4 stood at 0.79 µM.
As to `CC[C@H](C)[C@H]1C(=O)Nc2ccccc2CN1C(=O)c1nc2cccnc2[nH]1` [Compound 171, (S)-3-((S)-sec-butyl)-4-(3H-imidazo[4,5-b]pyridine-2-carbonyl)-1,3,4,5-tetrahydro-2H-benzo[e][1,4]diazepin-2-one], the AC1.4 was 0.03 µM.
The same measure for `CC[C@H](C)[C@H]1C(=O)Nc2ccccc2CN1C(=O)c1ccn(C)c(=O)c1` [Compound 172, (S)-3-((S)-sec-butyl)-4-(1-methyl-2-oxo-1,2-dihydropyridine-4-carbonyl)-1,3,4,5-tetrahydro-2H-benzo[e][1,4]diazepin-2-one]: 0.63 µM; for `CC[C@H](C)[C@H]1C(=O)Nc2ccccc2CN1C(=O)c1cnn(CC(N)=O)c1` [Compound 173, 2-(4-((S)-3-((S)-sec-butyl)-2-oxo-2,3,4,5-tetrahydro-1H-benzo[e][1,4]diazepine-4-carbonyl)-1H-pyrazol-1-yl)acetamide]: 0.22 µM; for `CC[C@H](C)[C@H]1C(=O)Nc2ccccc2CN1C(=O)c1ccc(C(=O)NCCO)[nH]1` [Compound 174, 5-((S)-3-((S)-sec-butyl)-2-oxo-2,3,4,5-tetrahydro-1H-benzo[e][1,4]diazepine-4-carbonyl)-N-(2-hydroxyethyl)-1H-pyrrole-2-carboxamide]: 0.03 µM.
Take `CC[C@H](C)[C@H]1C(=O)Nc2ccccc2CN1C(=O)c1ccc(C(=O)NCC(O)CO)[nH]1` (stereo partly drawn) [Compound 175, 5-((S)-3-((S)-sec-butyl)-2-oxo-2,3,4,5-tetrahydro-1H-benzo[e][1,4]diazepine-4-carbonyl)-N-(2,3-dihydroxypropyl)-1H-pyrrole-2-carboxamide]: the AC1.4 is 0.04 µM.
In the case of `CC[C@H](C)[C@H]1C(=O)Nc2ccccc2CN1C(=O)c1cc2c(=O)[nH]ncc2[nH]1` [Compound 176, (S)-3-((S)-sec-butyl)-4-(4-oxo-4,5-dihydro-1H-pyrrolo[2,3-d]pyridazine-2-carbonyl)-1,3,4,5-tetrahydro-2H-benzo[e][1,4]diazepin-2-one] it was 0.05 µM.
For `CC[C@H](C)[C@H]1C(=O)Nc2ccccc2CN1C(=O)[C@@H]1CCCN1` [Compound 177, (S)-4-(L-prolyl)-3-((S)-sec-butyl)-1,3,4,5-tetrahydro-2H-benzo[e][1,4]diazepin-2-one], the AC1.4 stood at 2.64 µM.
With `CC[C@H](C)[C@H]1C(=O)Nc2ccccc2CN1C(=O)[C@H]1CCCN1` [Compound 178, (S)-4-(D-prolyl)-3-((S)-sec-butyl)-1,3,4,5-tetrahydro-2H-benzo[e][1,4]diazepin-2-one], the AC1.4 is 3.37 µM.
The same measure for `CC[C@H](C)[C@H]1C(=O)Nc2ccccc2CN1C(=O)c1cn(C)nc1CCO` [Compound 179, (S)-3-((S)-sec-butyl)-4-(3-(2-hydroxyethyl)-1-methyl-1H-pyrazole-4-carbonyl)-1,3,4,5-tetrahydro-2H-benzo[e][1,4]diazepin-2-one]: 2.27 µM; for `CC[C@H](C)[C@H]1C(=O)Nc2ccccc2CN1C(=O)c1ccc(C(=O)N2CC(O)C2)[nH]1` [Compound 180, (S)-3-((S)-sec-butyl)-4-(5-(3-hydroxyazetidine-1-carbonyl)-1H-pyrrole-2-carbonyl)-1,3,4,5-tetrahydro-2H-benzo[e][1,4]diazepin-2-one]: 0.10 µM; for `CC[C@H](C)[C@H]1C(=O)Nc2ccccc2CN1C(=O)c1cc2nccnc2[nH]1` [Compound 181, (S)-3-((S)-sec-butyl)-4-(5H-pyrrolo[2,3-b]pyrazine-6-carbonyl)-1,3,4,5-tetrahydro-2H-benzo[e][1,4]diazepin-2-one]: 0.04 µM.
As to `CC[C@H](C)[C@H]1C(=O)Nc2ccccc2CN1C(=O)c1cnn(CCO)c1N` [Compound 182, (S)-4-(5-amino-1-(2-hydroxyethyl)-1H-pyrazole-4-carbonyl)-3-((S)-sec-butyl)-1,3,4,5-tetrahydro-2H-benzo[e][1,4]diazepin-2-one], the AC1.4 was 0.07 µM.
For the compound `CC[C@H](C)[C@H]1C(=O)Nc2ccccc2CN1C(=O)CCN1CC[C@H](O)C1` [Compound 184, (S)-3-((S)-sec-butyl)-4-(3-((S)-3-hydroxypyrrolidin-1-yl)propanoyl)-1,3,4,5-tetrahydro-2H-benzo[e][1,4]diazepin-2-one], the AC1.4 amounted to 0.55 µM.
In the case of `CC[C@H](C)[C@H]1C(=O)Nc2ccccc2CN1C(=O)CCN1CC[C@@H](O)C1` [Compound 185, (S)-3-((S)-sec-butyl)-4-(3-((R)-3-hydroxypyrrolidin-1-yl)propanoyl)-1,3,4,5-tetrahydro-2H-benzo[e][1,4]diazepin-2-one] it was 0.92 µM; in that of `CC[C@H](C)[C@H]1C(=O)Nc2ccccc2CN1C(=O)CCN1CCC[C@H]1C(N)=O` [Compound 186, (S)-1-(3-((S)-3-((S)-sec-butyl)-2-oxo-1,2,3,5-tetrahydro-4H-benzo[e][1,4]diazepin-4-yl)-3-oxopropyl)pyrrolidine-2-carboxamide], 2.18 µM.
The same measure for `CC[C@H](C)[C@H]1C(=O)Nc2ccccc2CN1C(=O)CCN1CCC[C@@H]1C(N)=O` [Compound 187, (R)-1-(3-((S)-3-((S)-sec-butyl)-2-oxo-1,2,3,5-tetrahydro-4H-benzo[e][1,4]diazepin-4-yl)-3-oxopropyl)pyrrolidine-2-carboxamide]: 1.39 µM.
The same measure for `CC[C@H](C)[C@H]1C(=O)Nc2ccccc2CN1C(=O)[C@H]1CCCN1CCC(N)=O` [Compound 188, 3-((R)-2-((S)-3-((S)-sec-butyl)-2-oxo-2,3,4,5-tetrahydro-1H-benzo[e][1,4]diazepine-4-carbonyl)pyrrolidin-1-yl)propanamide]: 3.46 µM; for `CC[C@H](C)[C@H]1C(=O)Nc2ccccc2CN1C(=O)c1cn(C)nn1` [Compound 189, (S)-3-((S)-sec-butyl)-4-(1-methyl-1H-1,2,3-triazole-4-carbonyl)-1,3,4,5-tetrahydro-2H-benzo[e][1,4]diazepin-2-one]: 0.10 µM.
`CC[C@H](C)[C@H]1C(=O)Nc2ccccc2CN1C(=O)c1ccnnc1` [Compound 190, (S)-3-((S)-sec-butyl)-4-(pyridazine-4-carbonyl)-1,3,4,5-tetrahydro-2H-benzo[e][1,4]diazepin-2-one]: the AC1.4 was found to be 0.54 µM.
For the compound `CC[C@H](C)[C@H]1C(=O)Nc2ccccc2CN1C(=O)c1cncnc1` [Compound 191, (S)-3-((S)-sec-butyl)-4-(pyrimidine-5-carbonyl)-1,3,4,5-tetrahydro-2H-benzo[e][1,4]diazepin-2-one], the AC1.4 is 0.19 µM.
In the case of `CC[C@H](C)[C@H]1C(=O)Nc2ccccc2CN1C(=O)c1cccnn1` [Compound 192, (S)-3-((S)-sec-butyl)-4-(pyridazine-3-carbonyl)-1,3,4,5-tetrahydro-2H-benzo[e][1,4]diazepin-2-one], the AC1.4 is 0.19 µM.
In the case of `CC[C@H](C)[C@H]1C(=O)Nc2ccccc2CN1C(=O)[C@@H]1CC(=O)N(C)C1` [Compound 193, (S)-3-((S)-sec-butyl)-4-((R)-1-methyl-5-oxopyrrolidine-3-carbonyl)-1,3,4,5-tetrahydro-2H-benzo[e][1,4]diazepin-2-one], the AC1.4 amounted to 0.72 µM.
For `CC[C@H](C)[C@H]1C(=O)Nc2ccccc2CN1C(=O)[C@H]1CC(=O)N(C)C1` [Compound 194, (S)-3-((S)-sec-butyl)-4-((S)-1-methyl-5-oxopyrrolidine-3-carbonyl)-1,3,4,5-tetrahydro-2H-benzo[e][1,4]diazepin-2-one], the AC1.4 turned out to be 1.52 µM.
The same measure for `CC[C@H](C)[C@H]1C(=O)Nc2ccccc2CN1C(=O)CNC(C)=O` [Compound 195, N-(2-((S)-3-((S)-sec-butyl)-2-oxo-1,2,3,5-tetrahydro-4H-benzo[e][1,4]diazepin-4-yl)-2-oxoethyl)acetamide]: 1.84 µM.
`CC[C@H](C)[C@H]1C(=O)Nc2ccccc2CN1C(=O)[C@H](C)NC(C)=O` [Compound 196, N-((S)-1-((S)-3-((S)-sec-butyl)-2-oxo-1,2,3,5-tetrahydro-4H-benzo[e][1,4]diazepin-4-yl)-1-oxopropan-2-yl)acetamide]: the AC1.4 came to 2.09 µM.
The same measure for `CC[C@H](C)[C@H]1C(=O)Nc2ccccc2CN1C(=O)[C@H]1CCCN1C(C)=O` [Compound 197, (S)-4-(acetyl-D-prolyl)-3-((S)-sec-butyl)-1,3,4,5-tetrahydro-2H-benzo[e][1,4]diazepin-2-one]: 1.76 µM.
Regarding `CC[C@H](C)[C@H]1C(=O)Nc2ccccc2CN1C(=O)[C@@H](C)NC(C)=O` [Compound 198, N-((R)-1-((S)-3-((S)-sec-butyl)-2-oxo-1,2,3,5-tetrahydro-4H-benzo[e][1,4]diazepin-4-yl)-1-oxopropan-2-yl)acetamide], the AC1.4 turned out to be 1.66 µM.
In the case of `CC[C@H](C)[C@H]1C(=O)Nc2ccccc2CN1C(=O)CC(C)O` (stereo partly drawn) [Compound 199, (3S)-3-((S)-sec-butyl)-4-(3-hydroxybutanoyl)-1,3,4,5-tetrahydro-2H-benzo[e][1,4]diazepin-2-one] it was 0.94 µM.
In the case of `C[C@@H](OCc1ccccc1)[C@H]1C(=O)Nc2ccccc2CN1C(=O)c1cnn(C)c1` [Compound 200, (S)-3-((R)-1-(benzyloxy)ethyl)-4-(1-methyl-1H-pyrazole-4-carbonyl)-1,3,4,5-tetrahydro-2H-benzo[e][1,4]diazepin-2-one] it was 4.22 µM.
